From patent US20210236476A1, “METHODS OF TREATING CANCER WITH SMALL MOLECULE PD-L1 INHIBITORS” (CHEMOCENTRYX, INC., priority 2018, published 2021) come the findings set out here.

What is called IC50 is the concentration needed to halve the response being measured. Higher therefore signals a need for much substance.

Bounds are passed on as bounds.

For this experiment, the target named is T1, human PD-L1 / human PD-1 interaction (Homo sapiens, UniProt Q9NZQ7).
T1 construct: purchased R&D (PD-L1); ACRO Biosystems (PD-1, biotin)
T1 sequence (Q9NZQ7 19-239 limits assumed): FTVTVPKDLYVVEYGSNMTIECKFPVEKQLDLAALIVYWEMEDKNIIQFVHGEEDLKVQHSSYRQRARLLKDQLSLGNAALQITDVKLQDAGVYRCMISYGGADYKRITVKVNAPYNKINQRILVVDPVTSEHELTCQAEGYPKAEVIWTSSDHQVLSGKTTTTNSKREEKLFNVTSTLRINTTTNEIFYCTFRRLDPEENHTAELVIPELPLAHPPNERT
As to the kind of experiment: ELISA of PD-1/PD-L1 interaction. Type of experiment: binding. On the procedure:
The activity of Compound 1.041 was assessed with an ELISA assay assessing the direct binding of recombinant PD-1 and PD-L1 proteins (FIG. 1A), a dimerization ELISA assay assessing the direct binding/dimerization of recombinant PD-L1 proteins (FIG. 1B), a cell based assay measuring the downstream signaling following the interaction of PD-1 and PD-L1 using a Luciferase reporter assay with cell lines overexpressing PD-1 and PD-L1 (FIG. 1C), and a mixed lymphocyte reaction assay measuring the functional outcome of upregulation of IFNg secretion, using allogenic primary human immune cells (FIG. 1D). Briefly, the mixed lymophocyte reaction assay was performed as follows: Dendritic cells and CD4+T Cells from unmatched donors were cultured together for 5 days in 96 well-flat bottom plates. Test compound was added as indicated at starting concentration of 1 μM with 1:4 dilutions with DMSO. Supernatants were harvested after 5 days of incubation and detection of human IFNg was performed by ELISA. […]
96 Well plates were coated with 1 μg/mL of human PD-L1 (obtained from R&D) in
PBS overnight at 4° C. The wells were then blocked with 2% BSA in PBS (WN) with 0.05% TWEEN-20 for 1 hour at 37° C. The plates were washed 3 times with PBS/0.05% TWEEN-20 and the compounds were serial diluted (1:5) in dilution medium and added to the ELISA plates. Human PD-1 and biotin 0.3μg/mL (ACRO Biosystems) were added and incubated for 1 hour at 37° C. then washed 3 times with PBS/0.05% TWEEN-20. A second block was performed with 2% BSA in PBS (WN)/0.05% TWEEN-20 for 10 min at 37° C. and was washed 3 times with PBS/0.05% TWEEN-20. Streptavidin—HRP was added for 1 hour at 37° C. then washed 3 times with PBS/0.05% TWEEN-20. TMB substrate was added and reacted for 20 min at 37° C. A stop solution (2 N aqueous H2SO4) was added. The absorbance was read at 450 nm using a micro-plate spectrophotometer.
(ELISA stands for enzyme-linked immunosorbent assay.)

As for `N#Cc1cncc(COc2cc(O[C@H]3CCc4c(-c5cccc(OCCCN6CC7(C6)CC(F)(F)C7)c5Cl)cccc43)c(Cl)cc2CN[C@H]2CCC[C@@H]2O)c1`, the IC50 is < 5 nM.

On to `N#Cc1cncc(COc2cc(O[C@H]3CCc4c(-c5cccc(OCCCN6CCC(O)CC6)c5Cl)cccc43)c(Cl)cc2CNC(CO)CO)c1`, for which the IC50 is < 5 nM.

As to `N#Cc1cncc(COc2cc(O[C@H]3CCc4c(-c5cccc(OCCCN6CCC(O)CC6)c5Cl)cccc43)c(Cl)cc2CNC[C@H]2CCC(=O)N2)c1`, the IC50 is < 5 nM. As to `C[C@@H](O)[C@H](NCc1cc(Cl)c(O[C@H]2CCc3c(-c4cccc(OCCCN5CC(O)C5)c4Cl)cccc32)cc1OCc1cncc(C#N)c1)C(=O)NS(C)(=O)=O`, the IC50 was < 5 nM. In the case of `Cc1c(OCCCN2CCC(O)CC2)cccc1-c1cccc2c1CC[C@@H]2Oc1cc(OCc2cncc(C#N)c2)c(CN[C@H](C(N)=O)[C@@H](C)O)cc1Cl` it was < 5 nM. Consider `N#Cc1cncc(COc2cc(O[C@H]3CCc4c(-c5cccc(OCCCN6CC(O)C6)c5Cl)cccc43)c(Cl)cc2CN2CC[C@@H](O)C2)c1`, for which the half-inhibitory concentration (IC50) was < 5 nM. The figure for `N#Cc1cncc(COc2cc(O[C@H]3CCc4c(-c5cccc(OCCCN6CCC(F)CC6)c5Cl)cccc43)c(Cl)cc2CN2CC[C@@H](F)C2)c1` is < 5 nM. As for `N#Cc1cncc(COc2cc(O[C@H]3CCc4c(-c5cccc(OCCCN6CC7(CC(F)C7)C6)c5Cl)cccc43)c(Cl)cc2CN[C@@H]2CCC[C@@H]2O)c1`, the half-inhibitory concentration (IC50) was < 5 nM. For `CC1(F)CCN(CCCOc2cccc(-c3cccc4c3CC[C@@H]4Oc3cc(OCc4cncc(C#N)c4)c(CN[C@@H]4CCCC[C@@H]4O)cc3Cl)c2Cl)CC1`, the IC50 is < 5 nM. Regarding `Cc1c(OCCCN2CCC(F)CC2)cccc1-c1cccc2c1CC[C@@H]2Oc1cc(OCc2cncc(C#N)c2)c(CNC[C@H]2CCC(=O)N2)cc1Cl`, the IC50 was < 5 nM. Regarding `CCOc1cc(O[C@H]2CCc3c(-c4cccc(OCCCN(C)C(C)(C)C)c4C)cccc32)c(Cl)cc1CNC[C@@H]1CCC(=O)N1`, the IC50 is < 5 nM. For the compound `Cc1c(OCCCN2CCCCC2)cccc1-c1cccc2c1CC[C@@H]2Oc1cc(OCc2cncc(C#N)c2)c(CNC[C@@H]2CCC(=O)N2)cc1Cl`, the IC50 was < 5 nM. Consider `Cc1c(OCCCN2CC[C@H](O)[C@H](F)C2)cccc1-c1cccc2c1CC[C@@H]2Oc1cc(OCc2cncc(C#N)c2)c(CN[C@H](C(=O)O)[C@@H](C)O)cc1Cl`, for which the IC50 is < 5 nM. Regarding `C[C@@H](O)[C@H](NCc1cc(Cl)c(O[C@H]2CCc3c(-c4cccc(OCCCN5CCC(O)CC5)c4Cl)cccc32)cc1OCc1cncc(C#N)c1)C(N)=O`, the half-maximal inhibitory concentration (IC50) was < 5 nM.

Take `Cc1c(OCCCN2CCC(C)CC2)cccc1-c1cccc2c1CC[C@@H]2Oc1cc(OCc2cc(C#N)cc(C#N)c2)c(CNC[C@@H]2CCC(=O)N2)cc1Cl`: the half-inhibitory concentration (IC50) was < 5 nM.

Consider `CN(Cc1cc(Cl)c(O[C@H]2CCc3c(-c4cccc(OCCCN5CC(O)C5)c4Cl)cccc32)cc1OCc1cncc(C#N)c1)[C@@](C)(CO)C(=O)O`, for which the IC50 was < 5 nM.

Regarding `Cc1c(OCCCN2CCCC2)cccc1-c1cccc2c1CC[C@@H]2Oc1cc(OCc2cc(C#N)cc(C#N)c2)c(CN[C@H]2CCC(=O)NC2)cc1Cl`, the concentration for half-maximal inhibition (IC50) was < 5 nM. In the case of `CCOC(=O)[C@](C)(CO)NCc1cc(Cl)c(O[C@H]2CCc3c(-c4cccc(OCCCN5CC(O)C5)c4Cl)cccc32)cc1OCc1cncc(C#N)c1` it was < 5 nM.

With `C[C@@](CO)(NCc1cc(Cl)c(O[C@H]2CCc3c(-c4cccc(OCCCN)c4Cl)cccc32)cc1OCc1cncc(C#N)c1)C(=O)O`, the 50% inhibitory concentration (IC50) is < 5 nM. Turning to `Cc1c(OCCCN2CC(F)C2)cccc1-c1cccc2c1CC[C@@H]2Oc1cc(OCc2cncc(C#N)c2)c(CNCC2CCC(=O)N2)cc1Cl` (stereo partly drawn), the IC50 is < 5 nM. `Cc1c(OCCCN2CCC(O)CC2)cccc1-c1cccc2c1CC[C@@H]2Oc1cc(OCc2cncc(C#N)c2)c(CN[C@H](C(=O)O)[C@@H](C)O)cc1Cl`: the IC50 is < 5 nM. Take `Cc1c(OCCCN2CCCCC2)cccc1-c1cccc2c1CC[C@@H]2Oc1cc(OCc2cc(C#N)cc(C#N)c2)c(CN[C@@H]2CCCC[C@@H]2O)cc1Cl`: the IC50 was < 5 nM. As for `N#Cc1cncc(COc2cc(O[C@H]3CCc4c(-c5cccc(OCCCN6CCC6)c5Cl)cccc43)c(Cl)cc2CNC[C@@H]2CCC(=O)N2)c1`, the concentration for half-maximal inhibition (IC50) was < 5 nM. In the case of `Cc1c(OCCCN2CC[C@@H](O)[C@H](F)C2)cccc1-c1cccc2c1CC[C@@H]2Oc1cc(OCc2cncc(C#N)c2)c(CN[C@H](C(=O)O)[C@@H](C)O)cc1Cl` it was 5 to 500 nM. In the case of `Cc1c(OCCCN2CC3(CCC3)C2)cccc1-c1cccc2c1CC[C@@H]2Oc1cc(OCc2cc(C#N)cc(C#N)c2)c(CNC[C@@H]2CCC(=O)N2)cc1Cl` it was < 5 nM. Regarding `C[C@@](CO)(NCc1cc(Cl)c(O[C@H]2CCc3c(-c4cccc(OCCCN5CCC(O)CC5)c4F)cccc32)cc1OCc1cncc(C#N)c1)C(=O)O`, the IC50 was < 5 nM. The figure for `CCOc1cc(O[C@H]2CCc3c(-c4cccc(OCCCN5CC[C@@H](O)C5)c4C)cccc32)c(Cl)cc1CNC(C)(CO)CO` is < 5 nM; for `Cc1c(OCCCN2CCC(O)CC2)cccc1-c1cccc2c1CCC2Oc1cc(OCc2cc(C#N)cc(C#N)c2)c(CN[C@@H]2CCCC[C@@H]2O)cc1Cl` (stereo partly drawn) it is < 5 nM; for `Cc1c(OCCCN2CCC(O)CC2)cccc1-c1cccc2c1C[C@@H](F)[C@@H]2Oc1cc(OCc2cncc(C#N)c2)c(CN[C@@H](CO)C(=O)O)cc1Cl` it is < 5 nM. The figure for `Cc1c(OCCCN2CCC(O)CC2)cccc1-c1cccc2c1CC[C@@H]2Oc1cc(OCc2cncc(C#N)c2)c(CN[C@@H]2CCCC[C@@H]2O)cc1Cl` is < 5 nM. `Cc1c(OCCCN2CCC(C)CC2)cccc1-c1cccc2c1CC[C@@H]2Oc1cc(OCc2cc(C#N)cc(C#N)c2)c(CN[C@H]2CCC(=O)NC2)cc1Cl` gave an IC50 of 5 to 500 nM. With `Cc1c(OCCCN2CCCCC2)cccc1-c1cccc2c1CC[C@@H]2Oc1cc(OCc2cc(C#N)cc(C#N)c2)c(CNC[C@H]2CCC(=O)N2)cc1Cl`, the IC50 is < 5 nM. For the compound `Cc1c(OCCCN2CCC[C@@H](O)C2)cccc1-c1cccc2c1CC[C@@H]2Oc1cc(OCc2cncc(C#N)c2)c(CN[C@H](C(=O)O)[C@@H](C)O)cc1Cl`, the IC50 was < 5 nM. In the case of `Cc1c(OCCCN2CCC(F)CC2)cccc1-c1cccc2c1CC[C@@H]2Oc1cc(OCc2cncc(C#N)c2)c(CNCCS(=O)(=O)O)cc1Cl` it was < 5 nM. Regarding `Cc1c(OCCCN2CC[C@@H](F)C2)cccc1-c1cccc2c1CC[C@@H]2Oc1cc(OCc2cncc(C#N)c2)c(CN[C@@H]2CCCC[C@@H]2O)cc1Cl`, the IC50 was < 5 nM. With `Cc1c(OCCCN2CCC(O)CC2)cccc1-c1cccc2c1CC[C@@H]2Oc1cc(OCCCN2CC[C@@H](O)C2)c(CN[C@@H]2CCCC[C@@H]2O)cc1Cl`, the half-maximal inhibitory concentration (IC50) was < 5 nM. For `Cc1c(OCCCN2CCCCC2)cccc1-c1cccc2c1CC[C@@H]2Oc1cc(OCc2cncc(C#N)c2)c(CNC[C@H]2CCC(=O)N2)cc1Cl`, the 50% inhibitory concentration (IC50) is < 5 nM. Turning to `Cc1c(OCCCN2CCCC[C@H]2C)cccc1-c1cccc2c1CC[C@@H]2Oc1cc(OCc2cc(C#N)cc(C#N)c2)c(CNC[C@H]2CCC(=O)N2)cc1Cl`, the 50% inhibitory concentration (IC50) was < 5 nM. For `CC(C)N1CCC(COc2cccc(-c3cccc4c3CC[C@@H]4Oc3cc(OCc4cncc(C#N)c4)c(CNC[C@@H]4CCC(=O)N4)cc3Cl)c2Cl)C1` (stereo partly drawn), the IC50 is < 5 nM. On to `CCOc1cc(O[C@H]2CCc3c(-c4cccc(OCCCN5CCC5(C)C)c4C)cccc32)c(Cl)cc1CNCCO`, for which the IC50 was < 5 nM. As for `Cc1c(OCCCN2CCCC2C(C)C)cccc1-c1cccc2c1CC[C@@H]2Oc1cc(OCc2cc(C#N)cc(C#N)c2)c(CN[C@H]2CCC(=O)NC2)cc1Cl` (stereo partly drawn), the IC50 is 5 to 500 nM. `N#Cc1cncc(COc2cc(O[C@H]3CCc4c(-c5cccc(OCCCN6CCC(F)CC6)c5Cl)cccc43)c(Cl)cc2CN[C@H]2CCOC[C@@H]2O)c1` [drawing 235]: the concentration for half-maximal inhibition (IC50) was < 5 nM. In the case of `N#Cc1cncc(COc2cc(O[C@H]3CCc4c(-c5cccc(OCCCN6CC(O)C6)c5Cl)cccc43)c(Cl)cc2CN2CCCC3(C2)NC(=O)NC3=O)c1` (stereo partly drawn) it was < 5 nM; in that of `CC1(O)CN(CCCOc2cccc(-c3cccc4c3CC[C@@H]4Oc3cc(OCc4cncc(C#N)c4)c(CN[C@@](C)(CO)C(=O)O)cc3Cl)c2Cl)C1`, < 5 nM; in that of `CCCC(CO)(NCc1cc(Cl)c(O[C@H]2CCc3c(-c4cccc(OCCCN5CC(O)C5)c4Cl)cccc32)cc1OCc1cncc(C#N)c1)C(=O)O` (stereo partly drawn), < 5 nM. The figure for `Cc1c(OCCCN2CCC(O)CC2)cccc1-c1cccc2c1CC[C@@H]2Oc1cc(OCc2cncc(C#N)c2)c(CNCC2CCC(=O)N2)cc1Cl` (stereo partly drawn) is < 5 nM; for `N#Cc1cncc(COc2cc(O[C@H]3CCc4c(-c5cccc(OCCCN6CC7(CC(F)C7)C6)c5Cl)cccc43)c(Cl)cc2CN[C@@H]2CCC[C@H]2O)c1` it is < 5 nM; for `N#Cc1cncc(COc2cc(O[C@H]3CCc4c(-c5cccc(OCCCN6CCC(F)CC6)c5Cl)cccc43)c(Cl)cc2CN[C@H]2CC[C@@H]2O)c1` it is < 5 nM.
